Results from ChEMBL document CHEMBL3046700, “Identification of novel inhibitors of HIV-1 integrase using pharmacophore-based virtual screening combined with molecular docking strategies” (Med Chem Res, 2013).

Molecular target: Human immunodeficiency virus type 1 integrase (Human immunodeficiency virus 1, UniProt Q7ZJM1)
Experiment: Inhibition of Human immunodeficiency virus 1 integrase strand transfer activity using [32P]5'end-labeled linear 21 mer as substrate incubated for 30 min prior to substrate addition measured after 1 hr

Chain of Human immunodeficiency virus type 1 integrase (Q7ZJM1 whole entry): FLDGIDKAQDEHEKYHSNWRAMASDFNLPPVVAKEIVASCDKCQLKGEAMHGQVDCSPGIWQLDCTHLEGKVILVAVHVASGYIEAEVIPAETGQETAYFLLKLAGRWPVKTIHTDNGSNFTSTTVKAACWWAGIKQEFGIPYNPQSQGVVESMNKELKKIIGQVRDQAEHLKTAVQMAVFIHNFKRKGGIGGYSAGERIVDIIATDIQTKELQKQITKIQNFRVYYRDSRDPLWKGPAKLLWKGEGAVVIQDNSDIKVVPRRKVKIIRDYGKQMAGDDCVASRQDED

Row | SMILES | IC50
1 | Cc1cc(S(=O)(=O)Nc2nnc3c4scc(C)c4ncn23)c(S)cc1Cl | 4.26 µM
2 | Cc1ccc(-n2ncnc2-c2nc3ccccc3nc2NS(=O)(=O)c2cc(C(=O)Nc3ccccc3)c(Cl)cc2S)cc1 | 10 µM
3 | Cc1cc2c(cc1Cl)SC(C(=O)c1ccc(F)cc1)=NS2(=O)=O | 42 µM
4 | O=C1NC(=S)SC1NS(=O)(=O)c1ccc(/N=N/c2ncccn2)cc1 (stereo not given) | 14.1 µM
5 | NNS(=O)(=O)c1cccc(OCC(=O)O)c1 | 8.7 µM
6 | COc1ccc(C(=O)C2=NS(=O)(=O)c3cc(C)c(Cl)cc3S2)cc1 | 12 µM

The next lines start with the values.

Row | IC50 | SMILES
7 | 7.41 µM | Cc1cc2nc3nc(N)nc(NS(=O)(=O)c4cc(C)c(Cl)cc4S)n3c2cc1C
8 | 0.9 µM | O=S(=O)(/C=C/c1ccc(O)c(O)c1O)CS(=O)(=O)/C=C/c1ccc(O)c(O)c1O
9 | 700 µM | O=C(Oc1ccc(/C=C/S(=O)(=O)CS(=O)(=O)/C=C/c2ccc(OC(=O)c3ccccc3)c(OC(=O)c3ccccc3)c2)cc1OC(=O)c1ccccc1)c1ccccc1
10 | 0.14 µM | CC(C)c1nc(C(=O)NCc2ccc(F)cc2)c(O)c(=O)n1C
